From ChEMBL document CHEMBL5344448, “Amide Alkaloids as Privileged Sources of Senomodulators for Therapeutic Purposes in Age-Related Diseases” (J Nat Prod, 2024)
Blank lines part the entries; values can stand above or below the compound they belong to.

Legend:
WI-38 = assay: Induction of senescence in human WI-38 cells; assay type: functional, cell-based
[1] = Inhibition of rat liver microsome ACAT; assay type: microsomes

Structure (SMILES): CCCCC/C=C/C=C/C(=O)NCC(C)C [PELLITORIN]
- IC50 (WI-38): 0.67 µM

Structure (SMILES): COc1cc(/C=C/C(=O)N2CCC=CC2=O)cc(OC)c1OC [PIPLARTINE]
- IC50 (WI-38): 8 µM

Structure (SMILES): O=C(/C=C/C=C/c1ccc2c(c1)OCO2)N1CCCCC1 [PIPERINE]
- IC50 (WI-38): 8.8 µM

Structure (SMILES): CC(C)CNC(=O)/C=C/C=C/CCCC/C=C/c1ccc2c(c1)OCO2 [RETROFRACTAMIDE B]
- IC50 (WI-38): 2 µM

Structure (SMILES): CC(C)CNC(=O)/C=C/C=C/CCCCCC/C=C/c1ccc2c(c1)OCO2 [GUINEENSINE]
- IC50 (WI-38): 8.9 µM
- IC50 [1]: 3 µM

- IC50 [1]: 90 µM
Structure (SMILES): O=C(/C=C/C=C/CC/C=C/c1ccc2c(c1)OCO2)N1CCCCC1 [DEHYDROPIPERNOLINE]
- IC50 (WI-38): 2.1 µM
